# Experimental data reported in ChEMBL document CHEMBL4800722, “Data for DCP probe BI 605906” (2021).
# Assays:
# [1] = biological target: Serine/threonine-protein kinase ULK1 (Homo sapiens) (UniProt O75385); conditions: Compound concentration 1.0 uM
# [2] = biological target: Hormonally up-regulated neu tumor-associated kinase (Homo sapiens) (UniProt P57058); conditions: Compound concentration 1.0 uM
# [3] = biological target: Proto-oncogene tyrosine-protein kinase Src (Homo sapiens) (UniProt P12931); assay: SRC N1 Invitrogen Lab (UK) kinase screen (BI); conditions: Compound concentration 1.0 uM
# [4] = biological target: Cyclin-dependent kinase 5 (Homo sapiens) (UniProt Q00535); assay: CDK5 (INACTIVE) Invitrogen Lab (UK) kinase screen (BI); conditions: Compound concentration 1.0 uM
# [5] = biological target: Dual specificity mitogen-activated protein kinase kinase 4 (Homo sapiens) (UniProt P45985); assay: MAP2K4 Invitrogen Lab (UK) kinase screen (BI); conditions: Compound concentration 1.0 uM
# [6] = biological target: NT-3 growth factor receptor (Homo sapiens) (UniProt Q16288); assay: NTRK3 Invitrogen Lab (UK) kinase screen (BI); conditions: Compound concentration 1.0 uM
# [7] = biological target: Tyrosine-protein kinase Yes (Homo sapiens) (UniProt P07947); assay: YES1 Invitrogen Lab (UK) kinase screen (BI); conditions: Compound concentration 1.0 uM
# [8] = biological target: Receptor tyrosine-protein kinase erbB-2 (Homo sapiens) (UniProt P04626)
# Chain of Receptor tyrosine-protein kinase erbB-2 (Homo sapiens) (P04626 whole entry): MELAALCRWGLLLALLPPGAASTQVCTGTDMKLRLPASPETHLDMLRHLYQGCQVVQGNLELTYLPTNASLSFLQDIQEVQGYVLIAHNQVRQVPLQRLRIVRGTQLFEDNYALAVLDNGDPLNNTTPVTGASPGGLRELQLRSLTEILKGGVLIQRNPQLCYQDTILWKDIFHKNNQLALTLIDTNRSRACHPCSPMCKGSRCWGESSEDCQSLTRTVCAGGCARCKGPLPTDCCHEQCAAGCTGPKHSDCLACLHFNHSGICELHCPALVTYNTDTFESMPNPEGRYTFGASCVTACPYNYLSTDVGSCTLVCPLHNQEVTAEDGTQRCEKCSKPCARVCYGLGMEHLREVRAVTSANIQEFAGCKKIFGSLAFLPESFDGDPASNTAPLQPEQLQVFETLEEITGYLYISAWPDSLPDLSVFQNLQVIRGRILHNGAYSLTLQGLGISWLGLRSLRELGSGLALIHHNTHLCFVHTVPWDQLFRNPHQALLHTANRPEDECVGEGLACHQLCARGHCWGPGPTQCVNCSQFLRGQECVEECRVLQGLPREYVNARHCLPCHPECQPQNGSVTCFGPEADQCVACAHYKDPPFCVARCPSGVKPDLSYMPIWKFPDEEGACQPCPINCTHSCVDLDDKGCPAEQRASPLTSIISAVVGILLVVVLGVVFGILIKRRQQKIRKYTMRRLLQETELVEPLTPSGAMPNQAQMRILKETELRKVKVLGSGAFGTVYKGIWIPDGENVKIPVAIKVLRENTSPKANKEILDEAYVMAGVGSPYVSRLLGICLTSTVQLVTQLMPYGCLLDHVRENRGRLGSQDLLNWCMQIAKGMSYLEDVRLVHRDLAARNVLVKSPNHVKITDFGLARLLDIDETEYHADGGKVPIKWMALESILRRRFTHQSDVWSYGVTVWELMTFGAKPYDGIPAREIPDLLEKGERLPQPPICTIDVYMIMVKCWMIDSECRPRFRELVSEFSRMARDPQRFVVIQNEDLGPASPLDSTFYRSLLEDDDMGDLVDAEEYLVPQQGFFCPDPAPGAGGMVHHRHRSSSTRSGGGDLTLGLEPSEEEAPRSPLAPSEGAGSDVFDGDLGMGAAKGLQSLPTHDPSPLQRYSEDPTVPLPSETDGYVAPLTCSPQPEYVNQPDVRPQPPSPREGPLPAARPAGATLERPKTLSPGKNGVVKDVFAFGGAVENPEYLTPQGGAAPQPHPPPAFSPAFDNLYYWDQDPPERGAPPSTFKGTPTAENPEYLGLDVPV
# [9] = biological target: Sodium-dependent noradrenaline transporter (Homo sapiens) (UniProt P23975); assay: NETRANS/H Eurofins SafetyScreen44 (BI); conditions: Compound concentration 10.0 uM
# [10] = biological target: Cyclin-dependent kinase 7 (Homo sapiens) (UniProt P50613); conditions: Compound concentration 1.0 uM
# [11] = biological target: CDK9/Cyclin K (Homo sapiens) (UniProt P50750+O75909); assay: CDK9_CYCLINK Invitrogen Lab (UK) kinase screen (BI); format: protein-complex assay; conditions: Compound concentration 1.0 uM
# [12] = biological target: Serine/threonine-protein kinase BRSK1 (Homo sapiens) (UniProt Q8TDC3); conditions: Compound concentration 1.0 uM
# [13] = biological target: Cyclin-G-associated kinase (Homo sapiens, UniProt O14976); assay: Dose response measurement (GAK)
# [14] = biological target: Homeodomain-interacting protein kinase 2 (Homo sapiens) (UniProt Q9H2X6); assay: HIPK2 Invitrogen Lab (UK) kinase screen (BI); conditions: Compound concentration 1.0 uM
# [15] = biological target: Serine/threonine-protein kinase greatwall (Homo sapiens) (UniProt Q96GX5); assay: MASTL Invitrogen Lab (UK) kinase screen (BI); conditions: Compound concentration 1.0 uM
# [16] = biological target: Tyrosine-protein kinase JAK2 (Homo sapiens) (UniProt O60674); conditions: Compound concentration 1.0 uM
# [17] = biological target: Protein kinase C beta type (Homo sapiens) (UniProt P05771)
# [18] = biological target: Receptor tyrosine-protein kinase erbB-4 (Homo sapiens) (UniProt Q15303); conditions: Compound concentration 1.0 uM
# [19] = biological target: Inhibitor of nuclear factor kappa-B kinase subunit epsilon (Homo sapiens) (UniProt Q14164)
# Chain of Inhibitor of nuclear factor kappa-B kinase subunit epsilon (Homo sapiens) (Q14164 whole entry): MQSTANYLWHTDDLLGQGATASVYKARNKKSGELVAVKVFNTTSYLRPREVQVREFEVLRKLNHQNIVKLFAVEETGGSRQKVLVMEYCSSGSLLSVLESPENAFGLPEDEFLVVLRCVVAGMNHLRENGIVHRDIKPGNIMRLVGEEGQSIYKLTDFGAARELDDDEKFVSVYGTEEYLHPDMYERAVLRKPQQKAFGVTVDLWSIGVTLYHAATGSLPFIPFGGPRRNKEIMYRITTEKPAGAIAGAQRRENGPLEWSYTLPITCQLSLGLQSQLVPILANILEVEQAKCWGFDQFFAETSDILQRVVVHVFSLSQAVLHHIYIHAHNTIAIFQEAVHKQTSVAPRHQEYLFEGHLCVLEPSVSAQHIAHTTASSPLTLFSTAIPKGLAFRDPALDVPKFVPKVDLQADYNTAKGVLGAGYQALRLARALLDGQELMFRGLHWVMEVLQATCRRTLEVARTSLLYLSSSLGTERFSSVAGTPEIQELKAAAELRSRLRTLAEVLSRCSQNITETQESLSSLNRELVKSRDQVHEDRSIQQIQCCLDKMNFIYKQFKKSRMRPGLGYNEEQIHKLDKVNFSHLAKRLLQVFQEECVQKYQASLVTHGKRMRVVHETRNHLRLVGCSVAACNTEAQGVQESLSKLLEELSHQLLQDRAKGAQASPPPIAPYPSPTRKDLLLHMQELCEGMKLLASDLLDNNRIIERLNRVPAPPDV
# [20] = biological target: Vascular endothelial growth factor receptor 2 (Homo sapiens) (UniProt P35968)
# Chain of Vascular endothelial growth factor receptor 2 (Homo sapiens) (P35968 whole entry): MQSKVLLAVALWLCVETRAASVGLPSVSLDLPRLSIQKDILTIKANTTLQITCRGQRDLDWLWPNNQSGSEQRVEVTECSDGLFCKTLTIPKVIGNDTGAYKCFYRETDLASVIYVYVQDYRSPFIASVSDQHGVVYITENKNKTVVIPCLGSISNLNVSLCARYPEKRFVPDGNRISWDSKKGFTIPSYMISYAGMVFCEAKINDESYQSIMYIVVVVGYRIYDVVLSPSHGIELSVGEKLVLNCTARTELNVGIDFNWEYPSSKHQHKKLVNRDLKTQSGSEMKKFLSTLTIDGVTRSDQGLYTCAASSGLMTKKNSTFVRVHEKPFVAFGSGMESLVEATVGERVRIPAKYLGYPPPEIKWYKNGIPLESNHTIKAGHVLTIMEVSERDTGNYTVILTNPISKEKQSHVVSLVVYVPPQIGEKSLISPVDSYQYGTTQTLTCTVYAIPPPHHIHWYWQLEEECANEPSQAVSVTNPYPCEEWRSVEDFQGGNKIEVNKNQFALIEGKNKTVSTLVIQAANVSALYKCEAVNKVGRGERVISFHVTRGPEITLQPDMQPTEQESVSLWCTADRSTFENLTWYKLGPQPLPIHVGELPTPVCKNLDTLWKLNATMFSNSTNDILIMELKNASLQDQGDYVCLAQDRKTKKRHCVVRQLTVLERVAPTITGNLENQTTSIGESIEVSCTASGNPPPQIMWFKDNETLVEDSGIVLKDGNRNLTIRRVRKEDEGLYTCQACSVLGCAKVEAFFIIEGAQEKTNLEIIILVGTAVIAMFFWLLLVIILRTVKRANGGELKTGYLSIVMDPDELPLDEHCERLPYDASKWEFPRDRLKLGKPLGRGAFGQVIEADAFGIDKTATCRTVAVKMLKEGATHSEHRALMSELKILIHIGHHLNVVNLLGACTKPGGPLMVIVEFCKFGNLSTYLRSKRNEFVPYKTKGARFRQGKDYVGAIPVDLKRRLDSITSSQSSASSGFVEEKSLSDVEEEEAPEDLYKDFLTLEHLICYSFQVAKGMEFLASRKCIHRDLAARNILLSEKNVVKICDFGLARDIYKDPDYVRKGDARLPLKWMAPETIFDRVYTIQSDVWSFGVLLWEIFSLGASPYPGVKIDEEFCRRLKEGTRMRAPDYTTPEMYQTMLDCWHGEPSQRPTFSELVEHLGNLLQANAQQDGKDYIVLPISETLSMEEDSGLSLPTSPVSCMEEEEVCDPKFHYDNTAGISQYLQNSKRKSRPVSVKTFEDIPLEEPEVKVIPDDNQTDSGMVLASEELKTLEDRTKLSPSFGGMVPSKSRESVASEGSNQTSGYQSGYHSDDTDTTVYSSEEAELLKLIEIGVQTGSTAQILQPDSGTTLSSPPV
# [21] = biological target: Delta-type opioid receptor (Homo sapiens) (UniProt P41143); conditions: Compound concentration 10.0 uM
# [22] = biological target: Serine/threonine-protein kinase Sgk3 (Homo sapiens) (UniProt Q96BR1); conditions: Compound concentration 1.0 uM
# [23] = biological target: MAP kinase-interacting serine/threonine-protein kinase 1 (Homo sapiens) (UniProt Q9BUB5); assay: MKNK1 Invitrogen Lab (UK) kinase screen (BI); conditions: Compound concentration 1.0 uM
# [24] = biological target: Activin receptor type-1-like (Homo sapiens) (UniProt P37023); assay: ACVRL1 (ALK1) Invitrogen Lab (UK) kinase screen (BI); conditions: Compound concentration 1.0 uM
# [25] = biological target: Serine/threonine-protein kinase BRSK2 (Homo sapiens) (UniProt Q8IWQ3); assay: BRSK2 Invitrogen Lab (UK) kinase screen (BI); conditions: Compound concentration 1.0 uM
# [26] = biological target: Serine/threonine-protein kinase PAK 3 (Homo sapiens) (UniProt O75914); conditions: Compound concentration 1.0 uM
# [27] = biological target: 5-hydroxytryptamine receptor 1B (Homo sapiens) (UniProt P28222); conditions: Compound concentration 10.0 uM
# [28] = biological target: CDK2/Cyclin O (Homo sapiens) (UniProt P24941+P22674); assay: CDK2/CYCLIN O Invitrogen Lab (UK) kinase screen (BI); format: protein-complex assay; conditions: Compound concentration 1.0 uM
# [29] = biological target: Calcium/calmodulin-dependent protein kinase kinase 1 (Homo sapiens) (UniProt Q8N5S9); conditions: Compound concentration 1.0 uM
# [30] = biological target: Adrenergic receptor alpha-1 (Rattus norvegicus) (UniProt P15823+P23944+P43140)
# [31] = biological target: Tyrosine-protein kinase ITK/TSK (Homo sapiens) (UniProt Q08881); assay: ITK Invitrogen Lab (UK) kinase screen (BI); conditions: Compound concentration 1.0 uM
# [32] = biological target: Interstitial collagenase (Homo sapiens) (UniProt P03956); conditions: Compound concentration 10.0 uM
# [33] = biological target: Dual specificity tyrosine-phosphorylation-regulated kinase 1A (Homo sapiens) (UniProt Q13627); conditions: Compound concentration 1.0 uM
# [34] = biological target: Dual specificity tyrosine-phosphorylation-regulated kinase 4 (Homo sapiens) (UniProt Q9NR20); conditions: Compound concentration 1.0 uM
# [35] = biological target: Phosphatidylinositol 4,5-bisphosphate 3-kinase catalytic subunit gamma isoform (Homo sapiens) (UniProt P48736); assay: PIK3CG Invitrogen Lab (UK) kinase screen (BI); conditions: Compound concentration 1.0 uM
# [36] = biological target: 3-hydroxy-3-methylglutaryl-coenzyme A reductase (Rattus norvegicus) (UniProt P51639); assay: HMGCOARED Eurofins SafetyScreen44 (BI); conditions: Compound concentration 10.0 uM
# [37] = biological target: ALK tyrosine kinase receptor (Homo sapiens) (UniProt Q9UM73); assay: ALK Invitrogen Lab (UK) kinase screen (BI)
# Chain of ALK tyrosine kinase receptor (Homo sapiens) (Q9UM73 19-1620 limits assumed): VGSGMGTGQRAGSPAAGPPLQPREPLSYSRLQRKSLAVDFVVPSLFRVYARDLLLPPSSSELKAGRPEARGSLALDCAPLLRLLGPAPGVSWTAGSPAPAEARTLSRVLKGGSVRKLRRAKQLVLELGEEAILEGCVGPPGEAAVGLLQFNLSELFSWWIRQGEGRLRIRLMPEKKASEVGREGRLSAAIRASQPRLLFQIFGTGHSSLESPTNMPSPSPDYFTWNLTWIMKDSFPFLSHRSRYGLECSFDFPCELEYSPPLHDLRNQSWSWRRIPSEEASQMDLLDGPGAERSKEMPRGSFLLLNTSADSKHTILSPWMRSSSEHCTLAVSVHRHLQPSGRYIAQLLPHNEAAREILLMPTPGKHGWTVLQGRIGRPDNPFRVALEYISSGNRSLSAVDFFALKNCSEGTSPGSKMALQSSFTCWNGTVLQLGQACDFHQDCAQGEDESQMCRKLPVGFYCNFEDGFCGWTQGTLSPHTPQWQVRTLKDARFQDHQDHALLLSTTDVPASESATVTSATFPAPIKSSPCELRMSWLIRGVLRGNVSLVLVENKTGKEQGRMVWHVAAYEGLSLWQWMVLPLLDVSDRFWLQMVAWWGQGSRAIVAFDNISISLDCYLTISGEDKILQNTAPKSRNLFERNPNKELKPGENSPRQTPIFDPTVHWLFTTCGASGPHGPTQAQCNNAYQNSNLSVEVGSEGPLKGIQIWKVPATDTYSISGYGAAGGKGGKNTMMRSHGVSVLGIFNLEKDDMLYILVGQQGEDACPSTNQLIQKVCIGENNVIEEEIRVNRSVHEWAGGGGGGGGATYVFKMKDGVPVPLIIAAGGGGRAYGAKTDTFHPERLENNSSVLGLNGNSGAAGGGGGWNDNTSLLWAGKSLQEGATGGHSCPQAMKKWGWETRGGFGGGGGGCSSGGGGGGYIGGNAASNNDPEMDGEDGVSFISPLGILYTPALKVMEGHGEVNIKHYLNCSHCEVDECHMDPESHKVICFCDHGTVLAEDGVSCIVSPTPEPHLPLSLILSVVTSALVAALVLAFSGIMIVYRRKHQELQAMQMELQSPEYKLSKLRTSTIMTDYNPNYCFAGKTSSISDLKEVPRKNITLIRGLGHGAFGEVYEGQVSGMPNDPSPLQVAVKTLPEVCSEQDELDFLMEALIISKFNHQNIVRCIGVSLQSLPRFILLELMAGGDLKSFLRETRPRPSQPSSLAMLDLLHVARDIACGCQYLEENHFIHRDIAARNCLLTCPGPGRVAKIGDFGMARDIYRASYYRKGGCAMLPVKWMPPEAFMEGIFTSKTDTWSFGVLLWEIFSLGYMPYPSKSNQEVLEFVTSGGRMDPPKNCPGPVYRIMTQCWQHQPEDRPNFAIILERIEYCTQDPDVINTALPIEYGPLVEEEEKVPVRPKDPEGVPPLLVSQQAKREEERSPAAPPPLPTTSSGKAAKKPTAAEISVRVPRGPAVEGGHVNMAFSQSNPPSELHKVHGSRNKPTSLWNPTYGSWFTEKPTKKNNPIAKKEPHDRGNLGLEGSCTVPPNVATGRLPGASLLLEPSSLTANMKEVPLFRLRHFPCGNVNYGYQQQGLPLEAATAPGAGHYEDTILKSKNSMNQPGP
# [38] = biological target: Serine/threonine-protein kinase 17B (Homo sapiens) (UniProt O94768); conditions: Compound concentration 1.0 uM
# [39] = biological target: Serine/threonine-protein kinase Nek1 (Homo sapiens) (UniProt Q96PY6)
# [40] = biological target: G protein-coupled receptor kinase 6 (Homo sapiens) (UniProt P43250); conditions: Compound concentration 1.0 uM
# [41] = biological target: Activin receptor type-2A (Homo sapiens) (UniProt P27037); conditions: Compound concentration 1.0 uM
# [42] = biological target: 5-hydroxytryptamine receptor 1E (Homo sapiens) (UniProt P28566); conditions: Compound concentration 10.0 uM
smiles,measurement,setting,value
CCC(F)(F)c1cc(N2CCC(S(C)(=O)=O)CC2)nc2sc(C(N)=O)c(N)c12 [BI-605906],residual activity,[1],94%
same,residual activity,[2],97%
same,residual activity,[3],88%
same,residual activity,[4],83%
same,residual activity,[5],79%
same,residual activity,[6],84%
same,residual activity,[7],74%
same,residual activity,[8]; Compound concentration 1.0 uM,96%
same,residual activity,[8]; Compound concentration 10.0 uM,86%
same,residual activity,[9],112%
same,residual activity,[10],99%
same,residual activity,[11],88%
same,residual activity,[12],92%
same,IC50,[13],188 nM
same,residual activity,[14],81%
same,residual activity,[15],85%
same,residual activity,[16],94%
same,residual activity,[17]; Compound concentration 1.0 uM,89%
same,residual activity,[17]; Compound concentration 10.0 uM,102%
same,residual activity,[18],94%
same,residual activity,[19]; Compound concentration 1.0 uM,98%
same,residual activity,[19]; Compound concentration 10.0 uM,98%
same,residual activity,[20]; Compound concentration 1.0 uM,98%
same,residual activity,[20]; Compound concentration 10.0 uM,79%
same,inhibition,[21],3.97%
same,residual activity,[22],96%
same,residual activity,[23],107%
same,residual activity,[24],64%
same,residual activity,[25],102%
same,residual activity,[26],101%
same,inhibition,[27],3.43%
same,residual activity,[28],81%
same,residual activity,[29],93%
same,residual activity,[30]; Compound concentration 10.0 uM,109%
same,residual activity,[30]; Compound concentration 100.0 uM,93%
same,residual activity,[31],107%
same,residual activity,[32],94%
same,residual activity,[33],91%
same,residual activity,[34],97%
same,residual activity,[35],102%
same,residual activity,[36],85%
same,residual activity,[37]; Compound concentration 1.0 uM,80%
same,residual activity,[37]; Compound concentration 10.0 uM,74%
same,residual activity,[38],97%
same,residual activity,[39]; Compound concentration 1.0 uM,92%
same,residual activity,[39]; Compound concentration 10.0 uM,30%
same,residual activity,[40],93%
same,residual activity,[41],108%
same,inhibition,[42],1.69%
